Assay results taken from PubChem BioAssay (NCI).
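Briefly, cells in 96-well plates were exposed to five compound concentrations for 48 h, and endpoints were estimated by linear interpolation. GI50 is the concentration that inhibits growth by half. TGI denotes the concentration required for complete inhibition of growth.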

Legend:
Assay in all cases: NCI anticancer screen, dose series, 48 h
A549 NSCLC = system: A549 NSCLC
SNB-19 CNS = system: SNB-19 CNS
RPMI-8226 leukemia = system: RPMI-8226 leukemia
HOP-62 NSCLC = system: HOP-62 NSCLC
KM12 colon = system: KM12 colon
NCI-H522 lung = system: NCI-H522 lung
T-47D breast = system: T-47D breast
BT-549 breast = system: BT-549 breast
A498 renal = system: A498 renal
SR leukemia = system: SR leukemia

Structure (SMILES)	TGI (A549 NSCLC)	TGI (SNB-19 CNS)	TGI (RPMI-8226 leukemia)	TGI (HOP-62 NSCLC)	TGI (KM12 colon)	GI50 (NCI-H522 lung)	TGI (NCI-H522 lung)	GI50 (A549 NSCLC)	GI50 (T-47D breast)	TGI (T-47D breast)	GI50 (SNB-19 CNS)	GI50 (BT-549 breast)	TGI (BT-549 breast)	GI50 (RPMI-8226 leukemia)	GI50 (HOP-62 NSCLC)	GI50 (KM12 colon)	GI50 (A498 renal)	TGI (A498 renal)	GI50 (SR leukemia)	TGI (SR leukemia)
CC(=O)Oc1cc2c(cc1OC(C)=O)C1(C)CCC2(C)c2cc(OC(C)=O)c(OC(C)=O)cc21	> 100 µM	22.4 µM	50.3 µM	58.2 µM	28.8 µM															
Cn1c(Cl)c(/C=C2/C(=O)Nc3ccccc32)c2ccccc21	> 63 µM	29.9 µM	4.6 µM	6.68 µM	1.27 µM	2.39 µM	22.4 µM	6.58 µM	0.724 µM	23.9 µM	0.935 µM	0.243 µM	3.87 µM	0.582 µM	0.293 µM	0.0689 µM				
Cc1cc(Cl)ccc1OCC(=O)Nc1nc2c(Cl)cccc2s1	42 µM	72 µM	> 100 µM	55.1 µM	> 100 µM	46.9 µM	> 100 µM	16.7 µM	> 100 µM	> 100 µM	31.2 µM	> 100 µM	> 100 µM	18.7 µM	19.6 µM	43.5 µM	> 100 µM	> 100 µM		
CC(C)CNc1nc(-c2ccccc2Cl)nc2ccccc12	33.5 µM	58.5 µM	32.7 µM	29.2 µM	64.4 µM	25.5 µM	> 100 µM	14.1 µM	35.2 µM	> 100 µM	24.8 µM			12.6 µM	15.8 µM	23.4 µM	18.5 µM	32.6 µM	19.7 µM	44.9 µM
CCCCCCCCCCCCCP(=O)(O)O	> 100 µM	> 100 µM		> 100 µM	> 100 µM		> 100 µM											> 100 µM		
COc1ccc2c(c1)C(=O)CCc1cc(OC)c(OC)c(OC)c1-2	> 100 µM	> 100 µM	> 100 µM					< 0.01 µM			< 0.01 µM			< 0.01 µM		< 0.01 µM				
CCCCCCCCn1ccc2cc(NC(=O)Cn3cc(CN4CCCCCC4)nn3)ccc21	3.36 µM	3.46 µM	4.31 µM	3.14 µM	3.27 µM	1.85 µM	3.59 µM	1.77 µM	1.66 µM	3.78 µM	1.8 µM	1.72 µM	3.32 µM	1.94 µM	1.64 µM	1.73 µM	1.76 µM	3.2 µM		
CC(=O)Oc1c(C)c(-c2ccccc2)c(C)c(-c2ccccc2)c1C(=S)c1ccccc1	> 100 µM	> 100 µM	> 100 µM	> 100 µM	> 100 µM		> 100 µM											> 100 µM		> 100 µM
CCOC(=O)[CH-]C(=O)C12CC3CC(CC(C3)C1)C2.CCOC(=O)[CH-]C(=O)C12CC3CC(CC(C3)C1)C2.CC[O-].CC[O-].[Ti+4]	> 100 µM	> 100 µM	> 100 µM	> 100 µM	> 100 µM	> 100 µM	> 100 µM	> 100 µM			> 100 µM			> 100 µM	> 100 µM	> 100 µM	> 100 µM	> 100 µM	> 100 µM	> 100 µM
O=C1C=CC(=O)C2C1C1(Cl)C(Cl)=C(Cl)C2(Cl)C1(Cl)Cl (configuration not stated)	26.5 µM	25.4 µM	> 100 µM	26.2 µM	8.95 µM	3.73 µM	13.1 µM	5.5 µM	4.95 µM	22.7 µM	11.2 µM			4.78 µM	10.6 µM	2.63 µM	1.46 µM	5.8 µM	2.53 µM	12.3 µM
O=C1C=C(Nc2ccccc2C(=O)CC(=O)C(=O)Nc2cccc([N+](=O)[O-])c2)c2ccccc2C1=O	> 100 µM	> 100 µM	53.6 µM	> 100 µM	> 100 µM		70.6 µM											> 100 µM		
Nc1ncc(-c2cnn(C3CCNCC3)c2)cc1-c1nc2cc(Cl)ccc2o1	3.11 µM	2.97 µM		3.1 µM	1.71 µM			1.53 µM	1.62 µM	3.34 µM	1.56 µM	1.61 µM	3.14 µM		1.61 µM	0.392 µM	1.71 µM	3.12 µM		
O=C(Nc1ccc(Cl)cc1)C1C(=O)C(=O)N(c2ccc(Cl)cc2)C1=O (configuration not stated)	> 100 µM	> 100 µM	> 100 µM		> 100 µM		> 100 µM											> 100 µM		> 100 µM
C[C@]12CC=CC(=O)[C@@]1(C)CCC(=O)C2	> 100 µM	> 100 µM		> 100 µM	> 100 µM		> 100 µM											> 100 µM		> 100 µM
Cc1ccc(S(=O)(=O)OC2CC=CC2)cc1	> 100 µM	> 100 µM	> 100 µM	> 100 µM	> 100 µM															
CCN1CCCc2cc3c(C(F)(F)F)cc(=O)oc3cc21	> 100 µM	> 100 µM		> 100 µM	> 100 µM		> 100 µM			> 100 µM			> 100 µM					> 100 µM		
NC1=NN(c2ccccc2)C(=O)C1C(=O)CCC(=O)Nc1cccc(Cl)c1 (configuration not stated)	> 100 µM	> 100 µM		> 100 µM	> 100 µM		> 100 µM											> 100 µM		
COc1ccc(NC(=O)CC/C(CC(=O)c2ccco2)=N/NC(=O)C(N)=O)cc1	> 100 µM	> 100 µM	> 100 µM	> 100 µM	> 100 µM		> 100 µM											> 100 µM		
COc1cc(NCC(C#N)C#N)ccc1N=Nc1ccc(Cl)cc1	> 100 µM	61.6 µM	92.3 µM	36.4 µM	33.4 µM		31.9 µM											> 100 µM		35.9 µM
COc1ccc([C@@]2(O)c3c(ccc(O)c3OC)[C@H]2OC)c(OC)c1	> 100 µM	> 100 µM	> 100 µM	> 100 µM	> 100 µM		85.4 µM											> 100 µM		> 100 µM
